How the values were obtained:
[1] = Half life in monkey hepatocytes at 1 uM; format: ADME, cell-based, Macaca mulatta, Hepatocyte; details: rhesus monkey
[2] = Half life in human hepatocytes at 1 uM; format: ADME, cell-based, Hepatocyte
[3] = Metabolic stability in rat liver microsomes at 1 uM after 10 mins in presence of NADPH; format: ADME, microsome; details: read-out: Stability
[4] = Metabolic stability in mouse liver microsomes at 1 uM after 10 mins in presence of NADPH; format: ADME, microsome; details: read-out: Stability
[5] = Metabolic stability in human liver microsomes at 1 uM after 10 mins in presence of NADPH; format: ADME, microsome; details: read-out: Stability
[6] = biological target: T1, Sodium/glucose cotransporter 2 (Homo sapiens, UniProt P31639); test: Inhibition of human kidneyl SGLT2 expressed in CHOK1 cells assessed as reduction in Na-dependent [14C]-AMG uptake preincubated for 10 mins followed by [14C]-AMG addition measured after 2 hrs by TopCount method; format: cell-based
T1 sequence (P31639 whole entry): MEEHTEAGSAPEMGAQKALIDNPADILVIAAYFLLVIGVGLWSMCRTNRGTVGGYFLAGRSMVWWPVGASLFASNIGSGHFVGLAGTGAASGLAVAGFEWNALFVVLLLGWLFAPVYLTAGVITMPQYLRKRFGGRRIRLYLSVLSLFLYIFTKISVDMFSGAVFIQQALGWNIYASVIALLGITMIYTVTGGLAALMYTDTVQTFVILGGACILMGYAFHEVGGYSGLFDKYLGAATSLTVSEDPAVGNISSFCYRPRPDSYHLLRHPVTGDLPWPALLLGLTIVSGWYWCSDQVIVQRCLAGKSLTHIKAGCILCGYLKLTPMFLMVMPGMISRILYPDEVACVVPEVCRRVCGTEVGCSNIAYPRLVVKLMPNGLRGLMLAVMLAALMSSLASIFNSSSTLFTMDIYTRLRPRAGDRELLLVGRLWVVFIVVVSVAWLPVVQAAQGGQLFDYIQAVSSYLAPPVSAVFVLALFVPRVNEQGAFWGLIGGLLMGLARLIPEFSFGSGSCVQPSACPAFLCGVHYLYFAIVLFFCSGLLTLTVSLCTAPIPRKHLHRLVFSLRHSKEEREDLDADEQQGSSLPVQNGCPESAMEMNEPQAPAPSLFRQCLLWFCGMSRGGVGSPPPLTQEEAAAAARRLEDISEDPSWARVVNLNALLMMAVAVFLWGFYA

[7] = biological target: T2, Sodium/glucose cotransporter 2 (Homo sapiens) (UniProt P31639); test: Inhibition of human kidneyl SGLT2 expressed in CHOK1 cells assessed as reduction in Na-dependent [14C]-AMG uptake at 0.3 uM preincubated for 10 mins followed by [14C]-AMG addition measured after 2 hrs by TopCount method relative to control; format: cell-based
T2 sequence (whole entry): T1 sequence (P31639 whole entry)

[8] = biological target: T3, SGLT1 (sodium/glucose cotransporter 1) (Homo sapiens, UniProt P13866); test: Inhibition of human small intestinal SGLT1 expressed in CHOK1 cells assessed as reduction in Na-dependent [14C]-AMG uptake at 0.3 uM preincubated for 10 mins followed by [14C]-AMG addition measured after 2 hrs by TopCount method relative to control; format: cell-based; details: CHO-K1 cells expressing human SGLT1, probe [14C]-AMG
T3 sequence (P13866 whole entry): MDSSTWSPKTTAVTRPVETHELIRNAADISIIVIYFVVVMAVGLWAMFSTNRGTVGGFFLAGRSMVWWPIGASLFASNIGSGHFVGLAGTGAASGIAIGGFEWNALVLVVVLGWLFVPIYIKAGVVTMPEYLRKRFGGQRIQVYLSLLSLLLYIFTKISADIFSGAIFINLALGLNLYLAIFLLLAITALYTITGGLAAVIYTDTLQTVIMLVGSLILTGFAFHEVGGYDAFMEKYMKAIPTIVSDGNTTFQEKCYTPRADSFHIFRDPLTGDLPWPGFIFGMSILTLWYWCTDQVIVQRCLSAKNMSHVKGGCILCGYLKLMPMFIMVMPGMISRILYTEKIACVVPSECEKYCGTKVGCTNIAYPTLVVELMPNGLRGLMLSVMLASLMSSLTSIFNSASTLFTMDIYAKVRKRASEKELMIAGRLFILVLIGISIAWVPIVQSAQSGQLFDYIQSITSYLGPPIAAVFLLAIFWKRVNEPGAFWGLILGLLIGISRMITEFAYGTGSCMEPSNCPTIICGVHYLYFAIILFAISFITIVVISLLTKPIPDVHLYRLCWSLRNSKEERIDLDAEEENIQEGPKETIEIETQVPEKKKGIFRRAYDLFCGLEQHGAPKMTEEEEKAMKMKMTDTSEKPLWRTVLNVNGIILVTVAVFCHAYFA

[9] = Tmax in Sprague-Dawley rat at 10 mg/kg, po; format: ADME, organism-based; details: in vivo
[10] = Half life in Sprague-Dawley rat at 2 mg/kg, iv; format: ADME, organism-based; details: in vivo
[11] = Cmax in Sprague-Dawley rat at 10 mg/kg, po; format: ADME, organism-based; parameters: dose 10 mg/kg, route oral; details: in vivo
[12] = Clearance in Sprague-Dawley rat at 2 mg/kg, iv; format: ADME, organism-based; details: in vivo
[13] = AUC (0 to infinity) in Sprague-Dawley rat at 10 mg/kg, po; format: ADME, organism-based; parameters: dose 10 mg/kg, route oral, time infinity; details: in vivo
[14] = Oral bioavailability in Sprague-Dawley rat at 10 mg/kg; format: ADME, organism-based; details: in vivo
[15] = Volume of distribution at steady state in Sprague-Dawley rat at 2 mg/kg, iv; format: ADME, organism-based; details: in vivo, read-out: Vdss
[16] = Half life in Sprague-Dawley rat hepatocytes at 1 uM; format: ADME, cell-based, Hepatocyte
[17] = Half life in dog hepatocytes at 1 uM; format: ADME, cell-based, Canis lupus familiaris, Hepatocyte
[18] = Half life in Sprague-Dawley rat at 10 mg/kg, po; format: ADME, organism-based; details: in vivo

Compound: Cc1ncc2n1-c1ccc(Cl)cc1C(c1ccccc1F)=NC2 [MIDAZOLAM]
- half-life at 1 µM [1]: 1.4 h
- half-life at 1 µM [2]: 1 h

Compound: CCOC(=O)N1CCc2sc(Cc3cc([C@@H]4O[C@H](CO)[C@@H](F)[C@H](O)[C@H]4O)c(O)cc3C)cc2C1
- remaining at 10 min, 1 µM [3]: 78%
- remaining at 10 min, 1 µM [4]: 86%
- remaining at 10 min, 1 µM [5]: 80%

Compound: COc1c([C@@H]2O[C@H](CO)[C@@H](F)[C@H](O)[C@H]2O)cc(Cc2ccc3c(c2)SCCO3)c2c1CCO2
- remaining at 10 min, 1 µM [3]: 12%
- IC50 [6]: 8.3 nM
- remaining at 10 min, 1 µM [4]: 61%
- remaining at 10 min, 1 µM [5]: 73%

Compound: Cc1ccc([C@@H]2O[C@H](CO)[C@@H](F)[C@H](O)[C@H]2O)cc1Cc1cc2c(s1)CCN(C(=O)C1CCCC1)C2
- inhibition [7]: 59%
- inhibition at 2 h, 0.3 µM [8]: 49%

Compound: Cc1cc(O)c([C@@H]2O[C@H](CO)[C@@H](F)[C@H](O)[C@H]2O)cc1Cc1cc2c(s1)CCN(C(=O)N1CCCC1)C2
- remaining at 10 min, 1 µM [3]: 82%
- IC50 [6]: 13.6 nM
- remaining at 10 min, 1 µM [4]: 74%
- remaining at 10 min, 1 µM [5]: 71%

Compound: Cc1cc(O)c([C@@H]2O[C@H](CO)[C@@H](F)[C@H](O)[C@H]2O)cc1Cc1cc2c(s1)CCN(C(=O)c1nccs1)C2
- remaining at 10 min, 1 µM [3]: 91%
- remaining at 10 min, 1 µM [4]: 66%
- remaining at 10 min, 1 µM [5]: 69%

Compound: Cc1ccc([C@@H]2O[C@H](CO)[C@@H](F)[C@H](O)[C@H]2O)cc1Cc1cc2c(s1)CCN(C(=O)c1nccs1)C2
- inhibition [7]: 73%
- inhibition at 2 h, 0.3 µM [8]: 39%

Compound: Cc1ccc([C@@H]2O[C@H](CO)[C@@H](F)[C@H](O)[C@H]2O)cc1Cc1cc2c(s1)CCN(C#N)C2
- inhibition [7]: 76%

Compound: COc1c(Cc2ccc3c(c2)OCCO3)cc([C@@H]2O[C@H](CO)[C@@H](F)[C@H](O)[C@H]2O)c2c1CCO2
- remaining at 10 min, 1 µM [3]: 2%
- IC50 [6]: 7.5 nM
- remaining at 10 min, 1 µM [4]: 94%
- remaining at 10 min, 1 µM [5]: 91%

Compound: OC[C@H]1O[C@@H](c2cc(Cc3ccc4c(c3)OCCO4)c3c(c2O)CCO3)[C@H](O)[C@@H](O)[C@@H]1F
- remaining at 10 min, 1 µM [3]: 64%
- Tmax [9]: 0.25 h
- half-life [10]: 0.31 h
- remaining at 10 min, 1 µM [4]: 97%
- Cmax [11]: 168 ng/mL
- clearance [12]: 28.1 mL/min/kg
- remaining at 10 min, 1 µM [5]: 97%
- AUC(0-inf) [13]: 307 ng·h/mL
- bioavailability [14]: 4%
- Vd [15]: 1.22 L/kg

Compound: O=C(O)Cc1ccccc1Nc1c(Cl)cccc1Cl [DICLOFENAC]
- half-life at 1 µM [16]: 0.8 h
- half-life at 1 µM [1]: 1 h
- half-life at 1 µM [2]: 0.7 h
- half-life at 1 µM [17]: 5.2 h

Compound: COc1cc(C)c(Cc2cc3c(s2)CCN(C#N)C3)cc1[C@@H]1O[C@H](CO)[C@@H](F)[C@H](O)[C@H]1O
- IC50 [6]: 5.3 nM

Compound: Cc1cc(O)c([C@@H]2O[C@H](CO)[C@@H](F)[C@H](O)[C@H]2O)cc1Cc1cc2c(s1)CCN(C#N)C2
- remaining at 10 min, 1 µM [3]: 79%
- Tmax [9]: 2.2 h
- IC50 [6]: 2.6 nM
- half-life [10]: 0.99 h
- remaining at 10 min, 1 µM [4]: 91%
- Cmax [11]: 13.7 ng/mL
- clearance [12]: 149 mL/min/kg
- remaining at 10 min, 1 µM [5]: 95%
- AUC(0-inf) [13]: 44.6 ng·h/mL
- half-life [18]: 1.44 h
- bioavailability [14]: 5%
- Vd [15]: 3.79 L/kg

Compound: OC[C@H]1O[C@@H](c2cc(Cc3ccc4c(c3)OCCO4)c(O)c3c2OCC3)[C@H](O)[C@@H](O)[C@@H]1F
- inhibition [7]: 26%
- inhibition at 2 h, 0.3 µM [8]: 31%
